Structures can show the parent of a compound that is named as a salt.
Legend:
[1] = test system: calcium kidney stones; assay: Urinary risk of forming calcium kidney stones in individuals with oxalocalcium kidney stones, before and 15 days after treatment start; assay type: in vivo, human; settings: for drop of the risk of forming calcium stones: 15 days after treatment start, citrate 6.48 g/day (Group II, potassium citrate tablets), phytate 120 mg/day (Group III, dietetic supplement)
Experimental: These individuals have been divided into three groups: 19 individuals with kidney stones (Group I), 38 individuals with kidney stones (Group II) and 17 individuals with kidney stones (Group III). The urinary risk to form calcium kidney stones was evaluated for each individual before being subjected to any pharmacological treatment. […] 15 days after treatment starting, the urinary risk of forming calcium kidney stones was evaluated again for each individual.

[2] = cited from earlier work

Row | Compound | drop of the risk of forming calcium stones [1] | levels of phytates in urine and blood without intake ([2]; after 10 days without a phytate intake) | maximum urinary excretions as share of the total intake ([2]; diet supplemented with products rich in phytates) | intake above which the amount excreted in urine does not increase ([2]; dose-dependent urinary excretion) | effect on urine pH ([1]; treatment of calcium kidney stones, compared with citrate)
1 | O=C(O)CC(O)(CC(=O)O)C(=O)O [citrate, potassium citrate, reference compound] | 52% | – | – | – | –
2 | O=P(O)(O)O[C@H]1[C@H](OP(=O)(O)O)[C@@H](OP(=O)(O)O)[C@H](OP(=O)(O)O)[C@@H](OP(=O)(O)O)[C@H]1OP(=O)(O)O [phytate, inositol hexaphosphate] | 50% | drop to practically undetectable values | 1-5% | 20.9 mg/kg of body weight | does not cause increases of the urine pH

From patent US20020136817A1 (priority 1999, published 2002)
